Experimental data: the RepoRT retention time repository (doi:10.1093/pcp/pcn183)
Where a name gives a salt, the structure may show the parent alone.

experiment: RP, Waters ACQUITY UPLC BEH C18, 38 °C, 0.24 mL/min; A: water + 0.1% formic acid, pH 3; B: acetonitrile + 0.1% formic acid, pH 3; gradient (min/%B) 0/0 0.25/0 0.4/9 0.8/17 1.9/100 2.1/100 2.11/0 3/0; conditions: stereoisomer not certain

LC retention time | SMILES
0.17 min | OCC(O)C(O)C(O)CO (stereo not given)
0.19 min | OCC1OC(OC2C(CO)OC(O)(CO)C2O)C(O)C(O)C1O (stereo not given)
0.19 min | OCC1OC(OCC2OC(O)C(O)C(O)C2O)C(O)C(O)C1O (stereo not given)
2.13 min | O=P(O)(O)OC1C(O)C(O)C(OP(=O)(O)O)C(O)C1O (stereo not given)
1.16 min | OCC1OC(OC2C(Oc3cc4c(O)cc(O)cc4[o+]c3-c3ccc(O)c(O)c3)OC(CO)C(O)C2O)C(O)C(O)C1O (stereo not given)
0.32 min | NC(=O)c1ncn(C2OC(COP(=O)(O)O)C(O)C2O)c1N (stereo not given)
0.48 min | O=c1[nH]c(=O)c2ncn(C3OC(COP(=O)(O)O)C(O)C3O)c2[nH]1 (stereo not given)
0.18 min | OCC1OC(OC2C(O)C(O)COC2(O)CO)C(O)C(O)C1O (stereo not given)
1.12 min | OCC1OC(Oc2cc(O)cc3[o+]c(-c4ccc(O)c(O)c4)c(OC4OC(CO)C(O)C(O)C4OC4OCC(O)C(O)C4O)cc23)C(O)C(O)C1O (stereo not given)
1.19 min | Cc1cc2nc3c(=O)[nH]c(=O)nc-3n(CC(O)C(O)C(O)COP(=O)(O)O)c2cc1C (stereo not given)
0.21 min | CC1OC(O)C(O)C(O)C1O (stereo not given)
1.36 min | COc1cc(-c2[o+]c3cc(O)cc(OC4OC(CO)C(O)C(O)C4O)c3cc2OC2OC(COC3OC(C)C(OC(=O)C=Cc4ccc(O)cc4)C(O)C3O)C(O)C(O)C2O)cc(O)c1O (stereo not given)
1.15 min | CC1OC(OCC2OC(Oc3cc4c(O)cc(O)cc4[o+]c3-c3cc(O)c(O)c(O)c3)C(O)C(O)C2O)C(O)C(O)C1O (stereo not given)
0.2 min | C[N+](C)(C)CCOP(=O)(O)OP(=O)([O-])OCC1OC(n2ccc(N)nc2=O)C(O)C1O (stereo not given)
2 min | CC(=O)OCC=C(C)CCC=C(C)CCC=C(C)C (mixture of isomers) [(cis,trans)-Farnesyl acetate]
1.21 min | CCC(C)C(=O)C(=O)O (racemic) [(+-)-3-Methyl-2-oxovaleric acid sodium salt]
1.68 min | CCC=CCC1C(=O)CCC1CC(=O)O (racemic) [(+-)-Jasmonic acid]
1.45 min | O=C1c2c(O)cc(O)cc2OC(c2ccc(O)c(O)c2)C1O (racemic) [(+-)-Taxifolin]
1.74 min | O=C(O)CCCCC1CCSS1 (racemic) [(+-)-alpha-Lipoic acid]
0.47 min | CN1CCCC1c1cccnc1 (racemic) [(-)-Nicotine ( solution 1.0 mg/mL+/-5% in methanol)]
0.12 min | NC(=O)NC(CC(=O)O)C(=O)O (racemic) [Carbamoyl-DL-aspartic Acid]
0.15 min | NCC(N)C(=O)O (racemic) [DL-2,3-Diaminopropionic acid monohydrochloride]
1.14 min | CCCC(O)C(=O)O (racemic) [DL-2-Hydroxyvaleric acid sodium salt hydrate]
0.19 min | CC(CN)C(=O)O (racemic) [DL-3-Aminoisobutyric acid]
1.42 min | O=C(O)C(O)Cc1ccccc1 (racemic) [DL-3-Phenyllactic acid]
0.14 min | NCC(O)CCC(N)C(=O)O (racemic) [DL-5-Hydroxylysine  hydrochloride]

LC retention time | SMILES
1.11 min | CC(CO)CCNc1ncnc2nc[nH]c12 (racemic) [DL-Dihydrozeatin]
0.17 min | O=CC(O)CO (racemic) [DL-Glyceraldehyde]
0.24 min | O=C(O)CC(C(=O)O)C(O)C(=O)O (racemic) [DL-Isocitric acid trisodium salt]
0.27 min | O=C(O)C1CCCCN1 (racemic) [DL-Pipecolinic acid]
1.57 min | NC(=O)CCCCC1CCSS1 (racemic) [DL-Thioctamide]
0.17 min | OC[C@@H](O)[C@H](O)CO (racemic) [DL-Threitol]
0.15 min | NC(CCCC(N)C(=O)O)C(=O)O (racemic) [DL-alpha,epsilon-Diaminopimelic acid]
0.18 min | CC(N)CC(=O)O (racemic) [DL-beta-Aminobutyric acid]
0.23 min | N[C@@H](CCSSCC[C@H](N)C(=O)O)C(=O)O (racemic) [DL-homocystine]
1.18 min | O=C(O)C(O)Cc1ccc(O)cc1 (racemic) [DL-p-Hydroxyphenyllactic acid]
0.31 min | CC(=O)NC(CC(=O)O)C(=O)O (racemic) [N-Acetyl-DL-aspartic acid]
0.18 min | CNC(C)C(=O)O (racemic) [N-Methyl-DL-Alanine]
0.24 min | CC(=O)NC(CO)C(=O)O (racemic) [N-acetyl-DL-serine]
0.16 min | CC(N)(Cc1cnc[nH]1)C(=O)O (racemic) [alpha-Methyl-DL-histidine dihydrochloride]
0.17 min | CC(N)(CO)C(=O)O (racemic) [alpha-Methyl-DL-serine]
0.16 min | O=P(O)(O)OCC(O)CO (racemic) [rac-Glycerol 3-phosphoate disodium salt hexahydrate]
0.51 min | CC(O)(CC(=O)O)C(=O)O (single isomer, unassigned; (-)) [(-)-Citramalic acid]
0.19 min | NCC(O)c1ccc(O)c(O)c1 (single isomer, unassigned; (-)) [(-)-Norepinephrine]
0.21 min | CN(C)C(=N)N=C(N)N [1,1-Dimethylbiguanide hydrochloride]
0.14 min | NCCCCN [1,4-Diaminobutane]
1.15 min | Cn1c(=O)[nH]c2ncn(C)c2c1=O [1,7-Dimethylxanthine]
1.18 min | c1cnc2c(c1)ccc1cccnc12 [1,10-Phenanthroline monohydrate]
0.32 min | NC1(C(=O)O)CCCC1 [1-Amino-1-cyclopentanecarboxylic acid]
0.18 min | NC1(C(=O)O)CC1 [1-Aminocyclopropane-1-carboxylic acid]
0.18 min | C[n+]1cccc(C(N)=O)c1 [1-Methylnicotinamide chloride]
1.07 min | Nc1ncnc2c1ncn2C1CC(O)C(CO)O1 (stereo not given) [2'-Deoxyadenosine monohydrate]

LC retention time | SMILES
0.62 min | Nc1ncnc2c1ncn2C1CC(O)C(COP(=O)(O)O)O1 (stereo not given) [2'-Deoxyadenosine-5'-monophosphate]
0.45 min | Nc1ccn(C2CC(O)C(CO)O2)c(=O)n1 (stereo not given) [2'-Deoxycytidine]
0.7 min | O=c1[nH]cnc2c1ncn2C1CC(O)C(COP(=O)(O)O)O1 (stereo not given) [2'-Deoxyinosine-5'-monophosphate sodium salt]
0.4 min | O=c1ccn(C2CC(O)C(COP(=O)(O)O)O2)c(=O)[nH]1 (stereo not given) [2'-Deoxyuridine-5'-monophosphate disodium salt]
0.72 min | Nc1nc2c(ncn2C2CC(O)C(COP(=O)(O)O)O2)c(=O)[nH]1 (stereo not given) [2'-deoxyguanosine 5'-monophosphate sodium salt hydrate]
1.25 min | O=C(O)c1cc(O)ccc1O [2,5-dihydroxy benzoic acid]
0.18 min | O=P(O)(O)OCC1OC(O)CC1O (stereo not given) [2-Deoxyribose-5-phosphate sodium salt]
1.15 min | O=C(O)c1ccco1 [2-Furoic acid]
1.51 min | O=C(O)C=Cc1ccccc1O [2-Hydroxycinnamic acid, predominantly trans]
1.34 min | CC(C)CC(O)C(=O)O (stereo not given) [2-Hydroxyisocaproic acid]
1.38 min | O=C(O)Cc1ccccc1O [2-Hydroxyphenylacetic acid]
0.68 min | O=c1cccc[nH]1 [2-Hydroxypyridine]
1.21 min | CC(C)C(O)(CC(=O)O)C(=O)O (stereo not given) [2-Isopropylmalic acid]
1.68 min | COc1ccccc1C=CC(=O)O [2-Methoxycinnamic acid]
1.16 min | CC(CCC(=O)O)C(=O)O (stereo not given) [2-Methylglutaric Acid]
1.12 min | CC(C)(COP(=O)(O)OP(=O)(O)OCC1OC(n2cnc3c(N)ncnc32)C(O)C1O)C(O)C(=O)NCCC(=O)NCCS (stereo not given) [3'-Dephosphocoenzyme A]
0.4 min | N[C@@H](Cc1ccc(O)c(O)c1)C(=O)O [3,4-Dihydroxy-L-phenylalanine]
1.14 min | O=C(O)c1ccc(O)c(O)c1 [3,4-Dihydroxybenzoic acid]
1.16 min | O=C(O)Cc1ccc(O)c(O)c1 [3,4-dihydroxyphenylacetic acid]
1.38 min | O=C(O)CCc1ccc(O)cc1 [3-(4-Hydroxyphenyl)-propionic acid]
1.1 min | N[C@@H](Cc1ccc(O)c(Cl)c1)C(=O)O [3-Chloro-L-tyrosine hydrochloride]
0.68 min | CC(O)(CC(=O)O)CC(=O)O [3-Hydroxy-3-methylglutarate]
1.13 min | Nc1c(O)cccc1C(=O)O [3-Hydroxyanthranilic acid]
1 min | O=C(O)C(O)c1cccc(O)c1 (stereo not given) [3-Hydroxymandelic acid]
0.24 min | Oc1cccnc1 [3-Hydroxypyridine]
1.24 min | O=S(=O)(O)Oc1c[nH]c2ccccc12 [3-Indoxylsulfate potassium salt]

SMILES | LC retention time
CS(=O)C=CCCN=C=S (stereo not given) | 1.44 min
NCC(CC(=O)O)c1ccc(Cl)cc1 (racemic) [(+-)-Baclofen] | 1.24 min
CS(=O)CCCCN=C=S (racemic) [D,L-sulforaphane] | 1.44 min
OCCN(CCO)CCO [2,2',2''-Nitrilotriethanol] | 0.17 min
CC(C)[N+](=O)[O-] [2-nitropropane] | 0.3 min
NCCc1c[nH]c2ccccc12 [3-(2-Aminoethyl)indole Hydrochloride] | 1.22 min
Nc1ncn[nH]1 [3-Amino-1,2,4-triazole] | 0.18 min
